Laboratory results taken from publication PMC7567097, “A nanoluciferase SARS-CoV-2 for rapid neutralization testing and screening of anti-infective drugs for COVID-19” (Nature Communications, 2020).
Read-outs that look alike come from different tables or passages of the source.

Key:
SARS-CoV-2-Nluc = experiment: microbe, parasite or virus in culture; type: cell-based
in vitro = conditions: human
[1] = human exposures in the clinic, approved dosing schedules, ref [51]-[68], cited from earlier work; for Cmax: read-out: Exposure Cmax
[2] = data from literature; ref [51]-[68]; cited from earlier work
COVID-19 = tested on: COVID-19; set-up: method as in PMID 32392282; conditions: >1400 patients, compared with no treatment; cited from earlier work
[3] = Severe acute respiratory syndrome coronavirus 2, 48 h
[4] = Severe acute respiratory syndrome coronavirus 2, read-out: EC50 (µM) Replicate 1
[5] = Severe acute respiratory syndrome coronavirus 2, read-out: EC50 (µM) Replicate 2

| Structure (SMILES) | EC50 (SARS-CoV-2-Nluc; read-out: EC50) [µM] | EC50 (SARS-CoV-2-Nluc; read-out: EC50 (µM) Replicate 1) [µM] | EC50 (SARS-CoV-2-Nluc; read-out: EC50 (µM) Replicate 2) [µM] | CC50 (A549-hACE2 cells) [µM] | Selectivity index (SI) = CC50/EC50 (SARS-CoV-2-Nluc) | EC50 (SARS-CoV-2-Nluc; [3]) [µM] | EC50 (SARS-CoV-2-Nluc; [4]) [µM] | EC50 (SARS-CoV-2-Nluc; [5]) [µM] | EC50 (SARS-CoV-2-Nluc; Severe acute respiratory syndrome coronavirus 2, read-out: projected protein adjusted potency (paEC50)) [µM] | CC50 (in vitro; CC50) [µM] | CC50 (in vitro; CC50 (µM) Replicate 1) [µM] | CC50 (in vitro; CC50 (µM) Replicate 2) [µM] | Exposure Cmin [1] [µM] | Cmax [1] [µM] | Plasma protein binding [2] | association of treatment with fatality rate among hospitalized patients (COVID-19) |
| --- | --- | --- | --- | --- | --- | --- | --- | --- | --- | --- | --- | --- | --- | --- | --- | --- |
| C[C@@]1(O)[C@H](O)[C@@H](CO)O[C@H]1n1ccc2c(N)ncnc21 [MK-0608] | > 10 | > 10 | > 10 | > 50 | – | – | – | – | – | – | – | – | – | – | – | – |
| Cc1c(O)cccc1C(=O)N[C@@H](CSc1ccccc1)[C@H](O)CN1C[C@H]2CCCC[C@H]2C[C@H]1C(=O)NC(C)(C)C [Nelfinavir] | – | – | – | – | 15.7 | 0.77 ± 0.32 | 0.542 | 0.993 | ~30 | 12 ± 1.3 | 11.1 | 13 | 2.6 | 8.3 | >98% | – |
| CCN(CCO)CCCC(C)Nc1ccnc2cc(Cl)ccc12 (stereo not drawn) [hydroxychloroquine] | – | – | – | – | – | – | – | – | – | – | – | – | – | – | – | not associated with significant differences in fatality rate |
| CC[C@H]1OC(=O)[C@H](C)[C@@H](O[C@H]2C[C@@](C)(OC)[C@@H](O)[C@H](C)O2)[C@H](C)[C@@H](O[C@@H]2O[C@H](C)C[C@H](N(C)C)[C@H]2O)[C@](C)(O)C[C@@H](C)CN(C)[C@H](C)[C@@H](O)[C@]1(C)O [azithromycin] | – | – | – | – | – | – | – | – | – | – | – | – | – | – | – | not associated with significant differences in fatality rate |
| CC(C)(C)NC(=O)[C@@H]1C[C@@H]2CCCC[C@@H]2CN1C[C@@H](O)[C@H](Cc1ccccc1)NC(=O)[C@H](CC(N)=O)NC(=O)c1ccc2ccccc2n1 [Saquinavir] | – | – | – | – | 3.9 | 8.95 ± 0.31 | 8.73 | 9.17 | – | 35.1 ± 11.7 | 43.4 | 26.8 | 0.65 | – | – | – |
| Nc1nc(=O)n([C@@H]2CS[C@H](CO)O2)cc1F [Emtricitabine (FTC), Emtricitabine] | – | – | – | – | – | > 10 | > 10 | > 10 | – | > 50 | > 50 | > 50 | – | 7.9 | 4% | – |
| CC(C)OC(=O)[C@H](C)N[P@](=O)(CO[C@H](C)Cn1cnc2c(N)ncnc21)Oc1ccccc1 [Tenofovir alafenamide (TAF), Tenofovir alafenamide] | – | – | – | – | – | > 10 | > 10 | > 10 | – | > 50 | > 50 | > 50 | – | 0.4 | 80% | – |
| CC(C)CN(C[C@@H](O)[C@H](Cc1ccccc1)NC(=O)O[C@H]1CCOC1)S(=O)(=O)c1ccc(N)cc1 [Amprenavir] | – | – | – | – | – | > 10 | > 10 | > 10 | – | > 50 | > 50 | > 50 | – | – | 90% | – |
| Cc1cc(/C=C/C#N)cc(C)c1Nc1ccnc(Nc2ccc(C#N)cc2)n1 [Rilpivirine] | – | – | – | – | – | 7.8 ± 1.04 | 7.06 | 8.53 | – | 14.6 ± 1.6 | 13.5 | 15.8 | 0.30 | 0.83 | 99.7% | – |
| O=C1Nc2ccc(Cl)cc2[C@@](C#CC2CC2)(C(F)(F)F)O1 [Efavirenz] | – | – | – | – | <3.9 | > 9.6 | 9.6 | > 10 | – | 37.6 ± 10.7 | 45.1 | 30 | 5.6 | – | 99.5–99.8% | – |
